Source: patent US8455469B2, “Use of norgestimate as a selective inhibitor of TRPC3, TRPC6 and TRPC7 ion channels” (Sanofi, priority 2007, dated 2013)
Entries after “also recorded” stand apart in the source; their conditions may differ.

Target: T1, TRPC5 (Homo sapiens, UniProt Q9UL62)
T1 construct: expressed in transfected cells; host or cells: HEK293 FITR (inducible expression)
T1 sequence (Q9UL62 1-973): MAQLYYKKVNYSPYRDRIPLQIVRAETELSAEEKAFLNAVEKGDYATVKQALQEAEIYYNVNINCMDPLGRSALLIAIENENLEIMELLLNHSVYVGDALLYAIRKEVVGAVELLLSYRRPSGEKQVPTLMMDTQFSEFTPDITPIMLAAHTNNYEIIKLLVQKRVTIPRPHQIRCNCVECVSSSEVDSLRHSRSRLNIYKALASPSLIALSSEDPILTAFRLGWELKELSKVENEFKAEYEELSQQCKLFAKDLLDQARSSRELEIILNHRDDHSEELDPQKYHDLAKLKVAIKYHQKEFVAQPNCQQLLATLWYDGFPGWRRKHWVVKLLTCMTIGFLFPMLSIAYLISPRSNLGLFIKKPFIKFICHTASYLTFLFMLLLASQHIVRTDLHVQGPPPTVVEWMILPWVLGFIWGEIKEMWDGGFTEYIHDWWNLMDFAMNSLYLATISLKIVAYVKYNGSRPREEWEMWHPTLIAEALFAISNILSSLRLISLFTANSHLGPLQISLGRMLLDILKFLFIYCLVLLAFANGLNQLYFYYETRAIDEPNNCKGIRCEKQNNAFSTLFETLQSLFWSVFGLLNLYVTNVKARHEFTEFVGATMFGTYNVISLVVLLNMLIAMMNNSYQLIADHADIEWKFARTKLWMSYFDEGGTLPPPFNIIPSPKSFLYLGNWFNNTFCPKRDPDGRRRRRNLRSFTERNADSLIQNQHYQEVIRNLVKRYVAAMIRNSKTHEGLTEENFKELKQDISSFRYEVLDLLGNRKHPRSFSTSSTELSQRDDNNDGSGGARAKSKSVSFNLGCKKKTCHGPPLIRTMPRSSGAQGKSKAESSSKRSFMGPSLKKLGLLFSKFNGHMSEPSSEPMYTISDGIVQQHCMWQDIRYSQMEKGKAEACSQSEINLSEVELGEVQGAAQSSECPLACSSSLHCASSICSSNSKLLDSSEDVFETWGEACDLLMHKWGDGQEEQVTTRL
Assay: FLIPR Ca2+ influx measurement, trypsin-stimulated TRPC5 HEK293 cells
Assay type: cell-based
Conditions: 200 nM trypsin
Excerpt: In general, cells are provided which express a TRPC channel. Such cells can be produced using genetic methods known to a person skilled in the art. After having induced the expression of the TRPC channel, cells are usually plated into e.g. microtiter plates and grown. Usually the cells grow at the bottom of multiwell plates and are fixed. Thereafter, the cells are generally washed and loaded with a dye in a suitable loading buffer, preferably with a fluorescent dye such as fluo4am. After having removed the loading buffer, the cells are incubated with the test compound or modulator, in particular with a biochemical or chemical test compound as described above, e.g. in the form of a chemical compound library. Ca^2+ measurements can be carried out using e.g. a Fluorescence Imaging Plate Reader (FLIPR). To stimulate Ca^2+ influx through the TRPC channel a channel activator such as OAG should generally be applied.
When these experiments were performed, no direct physiological stimuli of TRPC4 and TRPC5 were known. Therefore, both channels had to be stimulated indirectly, e.g. by application of trypsin, a protease-activated receptor (PAR) stimulating protease. […] Kinetics and quantity of calcium store release in cells treated with 30 μM norgestimate were not changed compared to untreated cells. […]

For `C#C[C@]1(OC(C)=O)CC[C@H]2[C@@H]3CCC4=C/C(=N/O)CC[C@@H]4[C@H]3CC[C@@]21CC` [norgestimate, D-17β-acetoxy-B-ethyl-17α ethinyl-gon-4-en-3-one oxime], the “inhibitory effect on TRPC5-mediated Ca2+ influx” value (30 μM norgestimate) was “only small inhibitory effects; also recorded: slightly reduced” and the IC50 (FLIPR, n=4) was greater than 30 µM.
